Data on one molecule can be found in US20220008397A1, “PHARMACEUTICAL COMPOSITION FOR THE TREATMENT OF OCULAR NEOVASCULARISATION” (NOVALIQ GMBH, priority 2019, published 2022).

The conditions of data set [1]: Tamura et al., 2002; cited from earlier work.
The next data set has as its system choroidal angiogenesis. Briefly: In vitro model of choroidal angiogenesis. Format: cell-based. The conditions noted are these: 20 ng/mL and 4 ng/mL. The procedure: The antiangiogenic effect of Tacrolimus was also tested in an in vitro model of choroidal angiogenesis and compared with dexamethasone.
Data set [2] relates to BMDMs (bone marrow derived macrophages). As to the kind of experiment: In vitro study using BMDMs (culture of bone marrow derived macrophages), expression of angiogenic growth factors. Type of data set: cell-based.

Structures are written as SMILES.

Regarding `C=CC[C@@H]1/C=C(\C)C[C@H](C)C[C@H](OC)[C@H]2O[C@@](O)(C(=O)C(=O)N3CCCC[C@H]3C(=O)O[C@H](/C(C)=C/[C@@H]3CC[C@@H](O)[C@H](OC)C3)[C@H](C)[C@@H](O)CC1=O)[C@H](C)C[C@@H]2OC` [Tacrolimus], the “Ability to penetrate tissue barrier upon topical administration” value in data set [1] is “poor ability to penetrate tissue barrier”. In addition, the “Dose dependence of the suppression of choroidal angiogenesis in vitro” value in the data set with choroidal angiogenesis (100 ng/mL) was “not dose-dependent”. In the data set on choroidal angiogenesis (tacrolimus at 100 ng/mL), the “Effect on choroidal angiogenesis in vitro” value is “suppressed choroidal angiogenesis”. Further, the “Expression of pro-angiogenic growth factors” value in data set [2] is on record as “can reduce the expression of pro-angiogenic growth factors”.
